From PMC3445516 (PLoS ONE, 2012) come the findings set out here.

What all share (test): Ambit kinase profiling, competition binding
One test has as its target T1, CDK2 (Homo sapiens, UniProt P24941).
T1 construct: purchased Ambit Biosciences (KINOMEscan)
The settings on record: for % Competition: 10 µM. The procedure:
(§1) Also included in the kinase profile are four isoforms of PKC (δ, ε, η, θ) and eight isoforms of CAMKs (CAMKIα, δ, γ; CAMKIIα, β, δ, γ; CAMK4).
(§2) The global kinase profiling experiment was performed by Ambit Biosciences.

The target in the next test is T2, LATS2 (Homo sapiens, UniProt Q9NRM7).
T2 construct: purchased Ambit Biosciences (KINOMEscan)
T2 sequence (Q9NRM7 1-1088): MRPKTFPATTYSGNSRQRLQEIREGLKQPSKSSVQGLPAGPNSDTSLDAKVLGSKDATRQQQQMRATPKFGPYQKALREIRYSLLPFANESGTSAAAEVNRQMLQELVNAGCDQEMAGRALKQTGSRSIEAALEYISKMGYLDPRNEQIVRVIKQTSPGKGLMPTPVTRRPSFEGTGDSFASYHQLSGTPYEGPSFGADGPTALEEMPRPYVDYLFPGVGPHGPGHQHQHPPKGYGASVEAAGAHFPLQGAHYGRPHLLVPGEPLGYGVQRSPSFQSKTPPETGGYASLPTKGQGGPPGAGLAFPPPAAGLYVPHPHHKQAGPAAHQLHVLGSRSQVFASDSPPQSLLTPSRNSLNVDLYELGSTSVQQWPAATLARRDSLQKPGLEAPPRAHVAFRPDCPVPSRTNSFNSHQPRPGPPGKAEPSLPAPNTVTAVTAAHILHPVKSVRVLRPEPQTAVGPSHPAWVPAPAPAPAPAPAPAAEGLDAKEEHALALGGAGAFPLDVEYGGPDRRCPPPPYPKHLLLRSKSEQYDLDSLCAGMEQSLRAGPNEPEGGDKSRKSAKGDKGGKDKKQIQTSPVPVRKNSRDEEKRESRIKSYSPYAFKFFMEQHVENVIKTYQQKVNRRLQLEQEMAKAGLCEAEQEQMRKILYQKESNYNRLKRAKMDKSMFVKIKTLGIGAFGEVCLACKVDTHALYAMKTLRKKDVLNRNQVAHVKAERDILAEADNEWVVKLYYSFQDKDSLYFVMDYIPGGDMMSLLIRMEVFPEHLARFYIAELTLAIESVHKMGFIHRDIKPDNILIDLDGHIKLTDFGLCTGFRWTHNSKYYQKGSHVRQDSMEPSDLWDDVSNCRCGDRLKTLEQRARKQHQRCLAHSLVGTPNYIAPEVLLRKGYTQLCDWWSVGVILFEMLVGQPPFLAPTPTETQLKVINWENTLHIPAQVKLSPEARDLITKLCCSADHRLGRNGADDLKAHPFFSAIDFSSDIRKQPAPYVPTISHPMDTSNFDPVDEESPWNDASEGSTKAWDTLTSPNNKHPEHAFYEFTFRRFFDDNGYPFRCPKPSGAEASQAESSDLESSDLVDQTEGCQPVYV
The settings on record: for % Competition: 10 µM. The method, then: as §1, §2

In a further test the target is T3, PCTK1 (Homo sapiens, UniProt Q00536).
T3 construct: purchased Ambit Biosciences (KINOMEscan)
The method, then: as §1, §2

Test [1] addresses T4, RPS6KA6(Kin.Dom.2-C-terminal) (Homo sapiens, UniProt Q9UK32).
T4 construct: RPS6KA6(Kin.Dom.2-C-terminal); purchased Ambit Biosciences (KINOMEscan)
T4 sequence (Q9UK32 401-745 limits assumed): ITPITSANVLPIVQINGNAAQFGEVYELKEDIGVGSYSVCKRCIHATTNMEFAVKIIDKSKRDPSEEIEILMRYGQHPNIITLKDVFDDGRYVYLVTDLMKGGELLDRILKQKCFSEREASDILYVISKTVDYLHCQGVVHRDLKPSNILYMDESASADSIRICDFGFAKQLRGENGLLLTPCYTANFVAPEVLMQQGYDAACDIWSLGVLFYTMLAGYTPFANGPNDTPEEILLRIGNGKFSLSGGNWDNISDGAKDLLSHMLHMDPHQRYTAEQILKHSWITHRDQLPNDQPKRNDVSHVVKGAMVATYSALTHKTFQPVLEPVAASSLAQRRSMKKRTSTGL
The note with it: for % Competition: 10 µM. The procedure:
as §1, §2

For a further test, the target named is T5, SNARK (Homo sapiens, UniProt Q9H093).
T5 construct: purchased Ambit Biosciences (KINOMEscan)
T5 sequence (Q9H093 1-628): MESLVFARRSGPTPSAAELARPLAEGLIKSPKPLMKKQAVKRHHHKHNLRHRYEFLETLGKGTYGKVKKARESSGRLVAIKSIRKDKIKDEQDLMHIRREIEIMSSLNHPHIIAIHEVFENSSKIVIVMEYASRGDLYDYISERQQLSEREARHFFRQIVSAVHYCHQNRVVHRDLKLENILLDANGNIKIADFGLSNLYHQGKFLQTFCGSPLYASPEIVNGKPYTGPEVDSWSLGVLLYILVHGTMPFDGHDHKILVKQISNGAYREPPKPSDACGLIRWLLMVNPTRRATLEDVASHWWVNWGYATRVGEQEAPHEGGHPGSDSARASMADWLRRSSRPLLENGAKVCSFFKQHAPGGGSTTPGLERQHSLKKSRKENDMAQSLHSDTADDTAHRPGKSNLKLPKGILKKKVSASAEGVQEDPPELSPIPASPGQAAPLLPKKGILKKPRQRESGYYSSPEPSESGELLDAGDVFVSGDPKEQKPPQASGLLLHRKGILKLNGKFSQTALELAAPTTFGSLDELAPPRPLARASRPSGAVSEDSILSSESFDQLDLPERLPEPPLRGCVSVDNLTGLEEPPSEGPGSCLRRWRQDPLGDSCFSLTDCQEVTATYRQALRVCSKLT
The note with it: for % Competition: 10 µM. The method, then: as §1, §2

The next test has as its target T6, SRC (Homo sapiens, UniProt P12931).
T6 construct: purchased Ambit Biosciences (KINOMEscan)
The method, then: as §1, §2

Where two headings read alike, the source gives them in different places.

T6 sequence (P12931 whole entry): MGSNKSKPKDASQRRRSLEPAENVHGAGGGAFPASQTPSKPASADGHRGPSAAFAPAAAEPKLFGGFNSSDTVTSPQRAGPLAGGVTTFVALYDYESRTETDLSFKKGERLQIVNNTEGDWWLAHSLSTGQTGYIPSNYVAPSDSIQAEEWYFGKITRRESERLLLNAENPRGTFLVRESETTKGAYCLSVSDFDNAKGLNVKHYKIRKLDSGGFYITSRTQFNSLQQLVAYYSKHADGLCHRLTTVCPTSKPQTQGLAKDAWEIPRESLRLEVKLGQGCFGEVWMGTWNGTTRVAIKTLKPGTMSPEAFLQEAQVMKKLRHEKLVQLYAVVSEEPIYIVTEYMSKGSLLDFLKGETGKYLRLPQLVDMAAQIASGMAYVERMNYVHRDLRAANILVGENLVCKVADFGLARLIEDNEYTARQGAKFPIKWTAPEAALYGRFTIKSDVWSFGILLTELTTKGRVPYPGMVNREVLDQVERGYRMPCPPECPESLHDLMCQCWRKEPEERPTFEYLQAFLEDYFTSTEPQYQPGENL
T3 sequence (Q00536 whole entry): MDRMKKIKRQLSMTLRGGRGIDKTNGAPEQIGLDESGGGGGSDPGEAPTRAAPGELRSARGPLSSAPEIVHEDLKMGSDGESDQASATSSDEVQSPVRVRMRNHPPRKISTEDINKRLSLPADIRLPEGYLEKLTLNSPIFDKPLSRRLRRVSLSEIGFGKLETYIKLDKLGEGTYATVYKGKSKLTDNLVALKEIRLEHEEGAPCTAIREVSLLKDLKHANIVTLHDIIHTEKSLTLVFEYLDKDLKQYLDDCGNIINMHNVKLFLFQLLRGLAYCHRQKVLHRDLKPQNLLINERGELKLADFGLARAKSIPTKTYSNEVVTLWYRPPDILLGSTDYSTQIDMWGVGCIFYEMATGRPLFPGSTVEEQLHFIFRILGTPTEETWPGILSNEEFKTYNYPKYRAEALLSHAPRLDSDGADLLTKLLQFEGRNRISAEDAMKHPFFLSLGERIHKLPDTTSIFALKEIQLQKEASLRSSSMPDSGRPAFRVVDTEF

Regarding `Fc1ccc(-c2c(-c3ccncc3)[nH]c3nccnc23)cc1` [Compound 122], the “% Competition” value is listed as 93% at CDK2, 82% on LATS2, 98% in test [1] and 89% at SNARK. For the same compound, the inhibition at 10 µM amounted to 100% at PCTK1 (PCTK1, 10 µM, read-out: % Competition) and 87% at SRC (SRC, 10 µM, read-out: % Competition).
Turning to `Fc1ccc(-c2c(-c3ccncc3)[nH]c3nccnc23)cc1` [RO1155697-000-005], the “Percent Competition” value at CDK2 (compound concentration 10 uM) came to 93%; on LATS2 (compound concentration 10 uM) it was 82%; in test [1] (compound concentration 10 uM), 98%; on SNARK (compound concentration 10 uM), 89%. The inhibition at 10 µM on PCTK1 (PCTK1, compound concentration 10 uM, read-out: Percent Competition) was determined as 100%; on SRC (SRC, compound concentration 10 uM, read-out: Percent Competition), 87%.
For the compound `CC(O)CNc1cc(-c2[nH]c3cccnc3c2-c2ccc(F)cc2)ccn1` (stereo not drawn) [Compound 140], the “% Competition” value on CDK2 is recorded as less than 50%; on LATS2, less than 50%; in test [1], 96%; on SNARK it was less than 50%. Also, the inhibition at 10 µM on PCTK1 (read-out: % Competition) and on SRC (read-out: % Competition) was less than 50% in each case.
